Assay type in all cases: cell-based, human
For test [1], the system named is hiPSC lines. The test is described as follows: Cardiac differentiation of hiPSC lines in S12 medium, FACS of CTNT-positive cells. Particulars: for percentage of CTNT-positive cells after glucose deprivation enrichment: 2 days of glucose deprivation (glucose replaced with DL-lactate); for percentage of CTNT-positive cells before glucose deprivation enrichment: hiPSC line XVF 4 in S12 medium, 1 μM, days 5-8. Here is the method: (§1) For small molecule-induced cardiac differentiation, hESC line H7 or hiPSCs were digested with Versene solution into single cells and seeded on VTN-NC-coated, 24-well plates at a density of 2.5-3.0×10^5 cells/well. Y27632 (10 μM) was supplemented on the first day and withdrawn thereafter. Cultures were maintained in E8 medium for 2-3 days until they reached 90% confluence. To initiate cell differentiation (designated as day 0), the medium was changed to S12 medium without insulin. Cells were treated with 4-8 μM CHIR99021 (Tocris, 4423) for 1 day. Then, the medium was replaced with fresh medium without CHIR99021. At day 3, 5 μM IWR-1 (Sigma-Aldrich, 10161) was supplied with fresh medium for 2 days. From day 5, insulin-containing S12 medium was used. Thereafter, the medium was changed every other day (FIG. 1a).
(§2) For directed differentiation of atrial or ventricular myocytes, 1 μM RA (Sigma-Aldrich, R2625) or 1 μM BMS493 (Tocris, 3509) was added to the differentiating cultures during days 5-8 of differentiation as described previously^9.
(§3) Cardiomyocytes were digested into single cells with 0.25% trypsin-EDTA (Life Technology, 25200-072) at 37° C. for about 5 min, and washed with buffer B, which contains 0.5% bovine serum albumin (Sigma, A9418-50G) in phosphate-buffered saline (PBS). Then the cells were fixed with 4% paraformaldehyde at room temperature and washed with buffer A, which contains 0.5% bovine serum albumin and 0.1% saponin (Sigma-Aldrich, S7900) in PBS. The cells were then incubated with an anti-human CTNT primary antibody (R&D systems, MAB1874) for 40 min at 4° C. and washed with buffer A, followed by incubation with a goat anti-mouse FITC-conjugated secondary antibody (ZSGB-BIO, ZF-0312) for 40 min at 4° C. Data were collected on FACScalibur (Becton Dickinson) and analyzed with FlowJo software (Treestar).

Test [2] deals with hiPSC-derived cardiomyocytes. The test is described as follows: Whole-cell patch clamp classification of AP types in RA- and BMS493-treated cultures. The protocol:
The dissociation method used has been described previously^9. Briefly, 25-30-day-old differentiated cardiomyocyte clusters were washed with a low Ca^2+ solution, and then incubated in 1 mg/mL collagenase II (Life Technology, 17101-015) dissolved in a low Ca^2+ solution for 30-40 min at 37° C. The isolated cells were suspended in S12 medium containing 10% FBS, transferred to 0.1% gelatin-coated glass coverslips, and then maintained in a 5% CO2 incubator at 37° C.
Action potential (AP) and ion channel activities, which are critical for normal functions of cardiomyocytes, were investigated using whole-cell patch clamp technology on single cardiomyocytes. The classification of nodal-, atrial- and ventricular-like APs was based on the AP properties. Particularly, nodal-like AP has a slower maximal upstroke velocity (dV/dt), smaller action potential amplitude (APA), depolarized maximum diastolic potential (MDP), and faster beating rate than those of atrial- and ventricular-like APs. An AP duration at 90%0, of repolarization (APD90) value of 150 ms was used to classify atrial- and ventricular-like APs, because of the significant plateau phase of ventricular AP^21, 22. […] The parameters of the three AP types recorded were also analyzed (FIG. 3c).

The subject of test [3] is hiPSC line XVF 4. Nature of the test: Double immunofluorescence staining of MLC2V and CTNT in 60-day-old cultures. The protocol:
Differentiated cultures were digested with 0.25% trypsin-EDTA, and the cells were plated on 0.1% gelatin-coated coverslips for 5 days to allow full attachment. The coverslips were washed with PBS and fixed in 4% paraformaldehyde for 20 min at 4° C. The fixed cells were then permeabilized with 0.1% Triton X-100 for 20 min at 4° C., and blocked with 10% goat serum (ZSGB-BIO, ZLI-9021) for 1 h at room temperature. Then, the cells were incubated overnight at 4° C. with the following primary antibodies: anti-human CTNT (R&D systems, MAB1874), mouse anti-human α-actinin (Sigma-Aldrich, A7811), mouse anti-human MHC (Abcam, ab15), goat anti-human α-SMA (Abcam, ab5694), mouse anti-human MLC2A (Synaptic Systems, 311011) and rabbit anti-human MLC2V (ProteinTech, 10906-1-AP). Goat anti-mouse 488- (ZSGB-BIO, ZF-0512) or 594-conjugated secondary antibody (ZSGB-BIO, ZF-0513), and goat anti-rabbit 488- (ZSGB-BIO, ZF-0511) or 594-conjugated secondary antibody (ZSGB-BIO, ZF-0516) were used as secondary antibodies. Nuclei were counterstained with 4′,6-diamidino-2-phenylindole (DAPI) (Sigma-Aldrich, D0542). Immunofluorescence images were visualized and recorded using an Olympus microscope system X51 or Olympus LSCM FV1000 (Olympus).

Test [4] relates to hiPSC line XVF 4. Nature of the test: QPCR of IRX4 and NR2F2 in RA- or BMS493-treated hiPSC cultures. Particulars: 14-day-old cultures; BMS493-treated versus RA-treated. Here is the method: as §2
Total RNA was isolated using RNeasy Plus Mini kit (Qiagen, 74134). One microgram of total RNA was reverse transcribed using the PrimeScript™ RT reagent kit with gDNA eraser (Takara, RR047A). RT-PCR was performed with 2×Taq Mix (CW-BIO, CW0682C) according to the manufacturer's instructions. PCR products were analyzed using 1.5% agarose gel electrophoresis. QPCR was performed in triplicate using the 2×QuantiFast SYBR Green I PCR Master Mix (Qiagen, 204057) on a Rotor Gene 6200 Real-Time PCR Machine (Corbett) with an annealing temperature of 60° C. The expression of each gene was normalized to GAPDH gene expression. The primer sequences are listed in Table 4 (primer sequences for RT-PCR) and Table 5 (primer sequences for QPCR).

Test [5] has as its system hPSC-derived ventricular-like cardiomyocytes. The test is described as follows: Perforated whole-cell patch clamp, evoked AP of ventricular-like cardiomyocytes paced at 1 Hz. Conditions: for APA / APD50 / APD90 / MDP / dV/dT: evoked AP, 1 Hz, percentage of untreated cardiomyocytes, mean±SEM. Here is the method:
Perforated whole-cell recording was used for pharmacological tests.
Nifedipine (Sigma-Aldrich, N7634) was prepared in DMSO. […] Other chemicals were from Sigma-Aldrich.

The test system of test [6] is hESC line H7. The test is described as follows: Cardiac differentiation of hESC line H7, FACS of CTNT-positive cells and cardiomyocyte yield. Particulars: for cardiac differentiation efficacy (in words): individual addition of the antioxidant to S12 basal medium. The protocol:
as §1, §3

This note sets out measurements from patent publication US20190100725A1, “CELL CULTURE MEDIUM AND CULTURE MEDIUM SUPPLEMENT” (Institute of Biophysics, Chinese Academy of Sciences, priority 2016, published 2019).

Consider `CC1(C)CC=C(C#Cc2ccccc2)c2cc(/C=C/c3ccc(C(=O)O)cc3)ccc21` [BMS493], for which, in test [1], the “percentage of CTNT-positive cells after glucose deprivation enrichment” value turned out to be 94.3% and the “percentage of CTNT-positive cells before glucose deprivation enrichment” value amounted to 86.3%. Further, the “percentage of recorded APs that were ventricular-like” value in test [2] is on record as 93.3%. Besides, the “MLC2V expression in cardiomyocytes” value in test [3] is recorded as “widely expressed”. The “expression level of ventricular-specific gene IRX4” value in test [4] is “significantly higher”.
In the case of `Cc1cccc(CCN2CCC(C(=O)c3ccc(NS(C)(=O)=O)cc3)CC2)n1` [E-4031], in test [5] (1 nM), the APA is reported as 102.9 ± 1.1%, the APD50 amounted to 103.8 ± 3.8%, the APD90 came out at 102.1 ± 3.1% and the MDP is recorded as 101.9 ± 1.2%. In test [5] (1 nM), the dV/dT came out at 101.2 ± 8.0%. In addition, in test [5] (10 nM, 1 Hz stimulation), the “effects on the AP” value is on record as “minor effects”. Further, in test [5] (10 nM), the APA turned out to be 103.8 ± 1.5%, the APD50 is given as 110.1 ± 5.4%, the APD90 is reported as 112.1 ± 5.0% and the MDP is listed as 101.5 ± 1.7%. Further, in test [5] (10 nM), the dV/dT turned out to be 112.4 ± 5.5%. In test [5] (100 nM), the APA was determined as 103.0 ± 2.3%, the APD50 came to 144.0 ± 6.7 %, the APD90 was 169.6±13.4% and the MDP was found to be 99.6 ± 2.9%. The molecule also came in with a dV/dT in test [5] (100 nM) of 111.4 ± 9.6%. Besides, in test [5] (1000 nM), the APA came to 95.6 ± 4.0%, the APD50 was determined as 151.1 ± 7.5 %, the APD90 is 195.6±12.3% and the MDP was found to be 92.4 ± 2.8%. This molecule also had a dV/dT in test [5] (1000 nM) of 95.6 ± 7.4%. In test [5] (1 Hz stimulation (0.1-0.3 nA), dose dependence), the AP duration entry is given as “prolonged the AP duration in a dose-dependent manner”. Besides, in test [5] (1 Hz stimulation, up to 1000 nM), the “change in APA and dV/dt” value is “no significant change”.
Regarding `CC(C)NCC(O)c1ccc(O)c(O)c1` (stereo not drawn) [Isoproterenol], in test [5] (1 nM), the APA is reported as 99.9 ± 1.7%, the APD50 is on record as 99.1 ± 0.7%, the APD90 is reported as 97.3 ± 1.7% and the MDP came out at 101.2 ± 1.5%. Besides, in test [5] (1 nM), the dV/dT is 99.9 ± 3.0%. In test [5] (10 nM), the APA came to 101.7 ± 1.6%, the APD50 worked out at 93.0 ± 1.6%, the APD90 is 92.0 ± 2.5% and the MDP came out at 102.8 ± 2.3%. In addition, the dV/dT in test [5] (10 nM) was 108.1 ± 1.8%. In test [5] (100 nM), this molecule gave an APA of 102.1 ± 2.5%, an APD50 of 90.7 ± 1.8%, an APD90 of 90.8 ± 1.8% and an MDP of 104.8 ± 3.7%. Moreover, in test [5] (100 nM), the dV/dT was found to be 105.6 ± 2.5%. For the same molecule, in test [5] (1000 nM), the APA was 99.0 ± 5.2%, the APD50 is reported as 87.0 ± 1.6 %, the APD90 is on record as 87.3 ± 1.6 % and the MDP is listed as 101.8 ± 5.0%. Besides, in test [5] (1000 nM), the dV/dT is reported as 105.3 ± 3.1%. In test [5] (1 Hz stimulation), the “APD90 (in words)” value is listed as “minor reduction”. Besides, the “effects on the parameters of AP” value in test [5] (1 Hz stimulation, except APD90) is reported as “no significant effects”.
On to `O=C1O[C@H]([C@@H](O)CO)C(O)=C1O` [L-ascorbic acid], for which the “cardiac differentiation efficacy (in words)” value in test [6] was “marginally improved”.
Same read-out and setting: under `CC(=O)N[C@@H](CS)C(=O)O` [N-acetyl-L-cysteine] stands “marginally improved”.
As to `COC(=O)C1=C(C)NC(C)=C(C(=O)OC)C1c1ccccc1[N+](=O)[O-]` [Nifedipine], in test [5] (1 nM), the APA amounted to 96.7 ± 2.7%, the APD50 is listed as 92.7 ± 2.1%, the APD90 is given as 94.6 ± 2.0% and the MDP amounted to 99.7 ± 2.7%. Besides, in test [5] (1 nM), the dV/dT was found to be 90.6 ± 4.1%. For the same molecule, in test [5] (10 nM), the APA is 96.2 ± 0.7%, the APD50 was 70.1 ± 2.9 %, the APD90 was 73.6±2.7% and the MDP turned out to be 103.5 ± 1.1%. This molecule displayed a dV/dT in test [5] (10 nM) of 96.4 ± 5.9%. For the same molecule, in test [5] (100 nM), the APA is 88.3 ± 2.4%, the APD50 amounted to 55.3 ± 4.3 %, the APD90 came to 60.8±4.3% and the MDP was found to be 100.8 ± 2.9%. In test [5] (100 nM), this molecule gave a dV/dT of 86.1 ± 8.8%. In test [5] (1000 nM), this molecule came in with an APA of 73.8 ± 4.4 %, an APD50 of 36.0 ± 3.3 %, an APD90 of 47.1±6.1% and an MDP of 100.8 ± 3.1%. In test [5] (1000 nM), the dV/dT is 60.0 ± 11.3 %.
Regarding `CC1=C(/C=C/C(C)=C/C=C/C(C)=C/C(=O)O)C(C)(C)CCC1` [RA, retinoic acid], in test [1], the “percentage of CTNT-positive cells after glucose deprivation enrichment” value turned out to be 95.7% and the “percentage of CTNT-positive cells before glucose deprivation enrichment” value came to 85%. In addition, the “percentage of recorded APs that were atrial-like” value in test [2] (30-day-old cardiomyocytes, n=31) was found to be 90.3%.
With `CC(=O)C(=O)[O-].[Na+]` [sodium pyruvate], the “cardiac differentiation efficacy (in words)” value in test [6] was “marginally improved”.
As to `Cc1c(C)c2c(c(C)c1O)CCC(C)(C(=O)O)O2` (stereo not drawn) [trolox], the “cardiac differentiation (FACS for CTNT positive cells)” value in test [6] (added to B27-based medium with six compounds removed, VTN-NC first three days) is “efficiently supported cardiac differentiation”. Also, the “cardiac differentiation efficacy (in words)” value in test [6] was “marginally improved”.
